Patent US5110797A, “Peptide compound and a pharmaceutically acceptable salt thereof” (Nippon Zoki Pharmaceutical Co., Ltd., priority 1985, dated 1992)

Experiments:
[1] = system: Wistar-strain rats (hippocampus EEG); experiment: Neurotropic effect: EEG activity after injection into the hippocampus of freely moving rats; format: in vivo, rat; settings: 100 ng to 10 μg in 2 μl saline injected unilaterally into the hippocampus
Procedure: (I) A neurotropic effect of the peptide compounds of the present invention was examined by the method of Maria-S. Oitzl and J. P. Huston [Brain research, 308, 33-42 (1984)].
Wistar-strain rats were implanted with a set of electrodes for recording EEG under anesthesia with pentobarbital (50 mg/kg, i.p.). The electrodes were bilaterally implanted into the hippocampus (Bregma -2.7 mm, Lateral 2.5 mm, Depth 2.8 mm) by reference to THE RAT BRAIN IN STEREOTAXIC COODINATES (George Paxion & Charles Watson, Academic press). Chemitorode, a injection guide cannula uniting with electrode for recording, was implanted in the temporoparietal left hole. The test drugs were unilaterally injected into the hippocampus of freely moving rats to examine their effect on EEG activity.
The rats were kept for about a week for a cure, and then used for the experiments. After the EEG activity was recorded for dozens of minutes in a normal state, 100 ng to 10 μg of the test drug dissolved in 2 μl of saline was injected into the hippocampus through the injection guide cannula. Only saline was used as a control. Immediately after the administration it began to record the EEG activity.

[2] = system: ddY-strain male mice; experiment: Analgesic effect, modified Randall-Selitto's test (Tale pressure method); format: in vivo; settings: 0.1 μmole/mouse, intracisternal injection, test at 5 min after injection, groups of 10 mice; control 1.17 ± 0.12
Procedure: Groups of 10 ddY-strain male mice weighing 24-30 g were used for measurement of analgesic effect of the peptide compounds of the present invention by modified Randall-Selitto's test (Tale pressure method). Analgesic test was performed at 5 min after intracisternal injection of the test drugs.

In the case of NCCCC(=O)O [GABA, γ-Aminobutyric acid], the “time after administration at which characteristic EEG spikes appeared” value [1] is reported as “a few minutes”, the “time after administration until which the EEG spikes continued” value [1] is reported as “about 25 min” and the “Pain Index” value [2] is reported as 1.65 ± 0.13.
